What follows are molecules tested on Hylobius abietis (assay: Antifeedant activity against Hylobius abietis (pine weevil ) in compound pre-treated Scots pine twig at 50 mM measured after 24 hr by two-choice laboratory bioassay).
Format: functional

Row | SMILES | AFI
1 | CCCOC(=O)/C=C/c1ccccc1 [PROPYL CINNAMATE] | 85%
2 | COC(=O)/C=C/c1ccc(OC)cc1OC | 96%
3 | COC(=O)c1cc(OC)ccc1OC [METHYL 2,5-DIMETHOXYBENZOATE] | 89%
4 | COC(=O)CCc1ccc(N)cc1 | 29%
5 | COC(=O)c1ccc(OC)c(OC)c1OC [METHYL 2,3,4-TRIMETHOXYBENZOATE] | 54%
6 | COC(=O)c1ccc(O)c(OC)c1 [METHYL VANILLATE] | 53%
7 | COC(=O)CCc1ccccc1OC | 97%
8 | COc1cc(C(=O)O)cc(OC)c1O [SYRINGIC ACID] | 8%
9 | CC/C=C/CCOC(=O)c1cc(OC)cc(OC)c1 | 62%
10 | COC(=O)c1cc(C)cc(C)c1 [METHYL 3,5-DIMETHYLBENZOATE] | 61%
11 | Cc1ccccc1CCC(=O)O | 47%
12 | COC(=O)c1ccc(OC)c(O)c1 [ISOVANILLIC ACID METHYL ESTER] | 65%
13 | CCOC(=O)C(Br)C(Br)c1ccccc1 (racemic; form 1) | 75%
14 | O=C(O)c1ccccc1O [SALICYLIC ACID] | 21%
15 | CCCCOc1ccc(CCC(=O)OC)cc1 | 70%
16 | CCOC(=O)CC(O)c1ccccc1Br (racemic) | 59%
17 | COC(=O)CCc1ccc(C(C)C)cc1 | 94%
18 | COC(=O)CCc1ccc(Cl)cc1 | 100%
19 | COC(=O)c1ccc(OC)c(Cl)c1 [METHYL 3-CHLORO-4-METHOXYBENZOATE] | 36%
20 | COc1ccc(CCC(=O)OC(C)C)cc1 | 83%
21 | COC(=O)CCc1ccc(Cl)c(Cl)c1 | 98%
22 | COc1ccc(C(=O)O)c(O)c1 [4-METHOXYSALICYLIC ACID] | 24%
23 | COC(=O)CCc1cc(OC)c(OC)c(OC)c1 | 26%
24 | COC(=O)CCc1ccc(C)cc1 | 99%
25 | COC(=O)CCc1ccc(C(C)=O)cc1 | 14%
26 | COC(=O)c1ccccc1OC [METHYL 2-METHOXYBENZOATE] | 80%

Row | SMILES | AFI
27 | COC(=O)CCc1ccccc1 [METHYL 3-PHENYLPROPANOATE] | 44%
28 | COC(=O)c1cc(O)cc(O)c1 [METHYL 3,5-DIHYDROXYBENZOATE] | 23%
29 | COC(=O)CCc1ccc(N(C)C)cc1 | 84%
30 | COC(=O)c1cc(O)ccc1OC | -3%
31 | COC(=O)CCc1cccc(C)c1 | 90%
32 | COC(=O)CCc1ccc(C)cc1C | 100%
33 | O=C(O)c1ccc(O)cc1 [PARABEN] | 31%
34 | COC(=O)/C=C/c1cc(OC)cc(OC)c1 | 72%
35 | COc1ccc(C(=O)O)cc1OC [VERATRIC ACID] | 7%
36 | COc1cc(C(N)=O)cc(OC)c1OC [3,4,5-TRIMETHOXYBENZAMIDE] | -2%
37 | COC(=O)/C=C/c1ccc(C(C)C)cc1 | 92%
38 | COC(=O)/C=C/c1ccc(C)cc1 | 76%
39 | COC(=O)CCc1cccc(OC)c1OC | 86%
40 | COC(=O)/C=C/c1cccc(OC)c1OC | 99%
41 | CCOC(=O)CC(O)c1ccccc1 (racemic) | 36%
42 | COC(=O)c1c(OC)cccc1OC [METHYL 2,6-DIMETHOXYBENZOATE] | 51%
43 | COC(=O)c1c(OC)cc(OC)cc1OC [METHYL 2,4,6-TRIMETHOXYBENZOATE] | 55%
44 | COc1ccc(O)c(C(=O)O)c1 | 17%
45 | COC(=O)CCc1ccc(F)cc1 | 98%
46 | COC(=O)/C=C/c1ccc(N(C)C)cc1 | 49%
47 | COC(=O)c1c(C)cc(O)c(C)c1O [ATRARIC ACID] | 31%
48 | COc1ccc(C(=O)OC(C)C)c(OC)c1 [ISOPROPYL 2,4-DIMETHOXYBENZOATE] | 96%
49 | COC(=O)CCc1ccc(OC)cc1 | 96%
50 | COc1cc(OC)cc(C(=O)O)c1 [3,5-DIMETHOXYBENZOIC ACID] | -4%
51 | COC(=O)c1ccc(O)c(O)c1 [METHYL PROTOCATECHUATE] | -7%
52 | COC(=O)c1cc(Br)cc(Br)c1 [METHYL 3,5-DIBROMOBENZOATE] | 50%

Row | SMILES | AFI
53 | CCCCOC(=O)/C=C/c1ccccc1 [BUTYL CINNAMATE] | 38%
54 | CC(C)OC(=O)/C=C/c1ccccc1 [ISOPROPYL CINNAMATE] | 96%
55 | CCOC(=O)C(Br)C(Br)c1ccccc1 (racemic; form 2) | 45%
56 | COC(=O)c1cccc(OC)c1OC [METHYL 2,3-DIMETHOXYBENZOATE] | 73%
57 | COc1ccccc1CCC(=O)O | 12%
58 | CCOC(=O)CCc1ccccc1 [ETHYL 3-PHENYLPROPANOATE] | 73%
59 | CC(=O)Oc1cc(C(=O)O)cc(OC(C)=O)c1OC(C)=O [3,4,5-TRIACETOXYBENZOIC ACID] | 14%
60 | COC(=O)c1c(O)cccc1OC [METHYL 2-HYDROXY-6-METHOXYBENZOATE] | 74%
61 | COC(=O)c1cccc(OC)c1O [METHYL 2-HYDROXY-3-METHOXYBENZOATE] | 95%
62 | COC(=O)c1ccc(OC)cc1 [METHYL 4-METHOXYBENZOATE] | 54%
63 | CCOC(=O)/C=C/c1ccccc1 [ETHYL CINNAMATE] | 83%
64 | COC(=O)CCc1cc(OC)cc(OC)c1 | 89%
65 | COC(=O)C(Br)C(Br)c1ccccc1 (racemic) | 50%
66 | COC(=O)CCc1ccc(OC)c(Br)c1 | 68%
67 | CCCCCCCCCCCCOC(=O)c1ccc(OC)c(OC)c1 [DODECYL 3,4-DIMETHOXYBENZOATE] | 23%
68 | COC(=O)CCc1ccc(O)c(OC)c1 [DIHYDROFERULIC ACID METHYL ESTER] | 54%
69 | COC(=O)c1cc(O)c(O)c(O)c1 [GALLIC ACID METHYL ESTER] | 21%
70 | COC(=O)/C=C/c1ccc([N+](=O)[O-])cc1 | 32%
71 | COC(=O)c1ccc(O)cc1O [METHYL 2,4-DIHYDROXYBENZOATE] | 46%
72 | COC(=O)c1cc([N+](=O)[O-])cc([N+](=O)[O-])c1 [METHYL 3,5-DINITROBENZOATE] | 34%
73 | COc1cc(C(=O)O)ccc1O [VANILLIC ACID] | 48%
74 | COC(=O)CCc1ccc(OC)c(OC)c1 | 35%
75 | COC(=O)c1cccc(OC)c1 [METHYL 3-METHOXYBENZOATE] | 89%
76 | COC(=O)c1ccc(O)cc1 [METHYLPARABEN] | 34%
77 | CCCCCCCCc1ccc(C(=O)OC)cc1 | 35%
78 | COC(=O)CCc1ccc(C(F)(F)F)cc1 | 57%

Row | SMILES | AFI
79 | COC(=O)CCc1ccc(O)cc1 [4-HYDROXYHYDROCINNAMIC ACID METHYL ESTER] | 21%
80 | COC(=O)c1cc(O)cc(OC)c1 | 54%
81 | COC(=O)CCc1cccc(OC)c1 | 95%
82 | COc1cc(OC)cc(C(=O)OCCCc2ccc(OC)c(OC)c2)c1 | 41%
83 | O=C(O)c1cc(O)cc(O)c1 [3,5-DIHYDROXYBENZOIC ACID] | 41%
84 | CCSC(=O)c1cc(OC)cc(OC)c1 | 74%
85 | COc1cccc(C(=O)O)c1O | 22%
86 | COC(=O)c1ccc(OC)cc1OC [METHYL 2,4-DIMETHOXYBENZOATE] | 99%
87 | COC(=O)c1cc(OC)cc(OC)c1 [METHYL 3,5-DIMETHOXYBENZOATE] | 95%
88 | COC(=O)c1cccc(O)c1OC [METHYL 3-HYDROXY-2-METHOXYBENZOATE] | 75%
89 | C=CCc1ccc(OC(=O)c2cc(OC)cc(OC)c2)c(OC)c1 | 17%
90 | COc1ccc(C(=O)O)cc1O [ISOVANILLIC ACID] | 51%
91 | COC(=O)CCc1ccccc1C | 91%
92 | COC(=O)/C=C/c1ccc(C(F)(F)F)cc1 | 62%
93 | COc1cc(OC)cc(C(=O)OCC(F)(F)F)c1 | 86%
94 | CCNC(=O)c1cc(OC)cc(OC)c1 | 86%
95 | COC(=O)CCc1ccc(Br)cc1 | 97%
96 | CC(C)OC(=O)c1ccc(O)cc1 [ISOPROPYL 4-HYDROXYBENZOATE] | 63%
97 | O=C(O)c1ccc2c(c1)OCO2 [PIPERONYLIC ACID] | 14%
98 | COC(=O)/C=C/c1ccc(OC)c(OC)c1 | 36%
99 | CCC(C)OC(=O)/C=C/c1ccccc1 (stereo not drawn) [SEC-BUTYL CINNAMATE] | 48%
100 | COC(=O)c1cc(OC)ccc1O [METHYL 2-HYDROXY-5-METHOXYBENZOATE] | 74%
101 | COC(=O)c1ccc2c(c1)OCO2 [METHYL 3,4-METHYLENEDIOXYBENZOATE] | 57%
102 | COC(=O)c1ccc(O)cc1OC [METHYL 4-HYDROXY-2-METHOXYBENZOATE] | 35%
103 | COC(=O)C(C)Cc1ccccc1 (racemic) | 79%
